Among the data in US6924302B2, “Substituted triazole diamine derivatives as kinase inhibitors” (Ortho McNeil Pharmaceutical, Inc., priority 2000, dated 2005) are IC50 values, retold here.

Each structure is given as a SMILES string.

In one experiment the target is T1, CDK1:Cyclin-B (Homo sapiens, UniProt P06493).
T1 construct: purchased New England Biolabs 6020; host or cells: insect cells
The experiment is described as follows: CDK1 Screening Assay. Format: biochemical. Conditions: Table 1; read-out: CDK1 IC50. As to the method:
(§1) 70 μL of the kinase reaction mixture was dispensed into the well of a streptavidin coated FlashPlate™ (Cat. # SMP103, NEN, Boston, Mass.). Then 1 μL of test compound stock in 100% DMSO was added to the wells resulting in a final concentration of 1% DMSO in the reaction with a 100 μl final reaction volume. Next, CDK1:Cyclin-B protein was diluted in 50 mM Tris-HCl pH=8.0, 0.1% BSA at a concentration of 1 ng per μL and 30 μl (30 ng enzyme per test well) was added to each well to initiate the reaction. The reaction was incubated for one hour at 30° C. At the end of the 1-hour incubation, the reaction was terminated by aspirating the reaction mixture from the plate and washing the wells twice with PBS containing 100 mM EDTA. The histone-H1 biotinylated peptide substrate became immobilized on the Flashplate™ and the incorporation of ^33P-γ-ATP was measured by reading the plate on a scintillation counter. Inhibition of the enzymatic activity of CDK1 was measured by observing a reduced amount of ^33P-γ-ATP incorporated into the immobilized peptide.
Assays to test compound inhibition of other kinases were preformed using methods that measure the amount of phosphorylation of a biotinylated peptide substrate. Biotinylated peptide substrates were selected from the literature as appropriate for the enzyme being evaluated. […] Assay conditions vary slightly for each protein kinase, for example, insulin receptor kinase requires 10 mM MnCl2 for activity and Calmodulin-dependent protein kinase requires calmodulin and 10 mM CaCl2. These assay conditions are known in the art. The reaction mixture was dispensed into the wells of a streptavidin coated Flashplate and 1 μl drug stock in 100% DMSO was added to a 100 μl reaction volume resulting in a final concentration of 1% DMSO on the reaction. Enzyme was diluted in 50 mM Tris-HCl pH=8.0, 0.1% BSA and add to each well. The reaction was incubated for one hour at 30° C. in the presence of compound. After one hour the reaction mix was aspirated from the plate and the plate was washed with PBS containing 100 mM EDTA. The plate was read on a scintillation counter to determine ^33P-γ-ATP incorporated into the immobilized peptide. Test compounds were assayed in duplicate at 8 concentrations [100 uM, 10 uM, 1 uM, 100 nM, 10 nM, 1 nM, 100 pM, 10 pM]. A maximum and minimum signal for the assay was determined on each plate. The IC50 was calculated from the dose response curve of the percent inhibition of the maximum signal in the assay according to the formula [max signal—background/test compound signal—background (100)=% inhibition] by graphing the percent inhibition against the log concentration of test compound. Known inhibitor compounds appropriate for the kinase being assayed were also included on each plate. […]

In experiment [1] the target is T2, VEGF-R (vascular endothelial growth factor receptor-2) (Rattus norvegicus, UniProt O08775).
T2 construct: polyhistidine (6xHIS) (N)
The experiment is described as follows: VEGF-R Screening Assay. Format: biochemical. As to conditions: Table 1; read-out: VEGF-R IC50. The procedure: as §1, with “a 100 μL final reaction” for “a 100 μl final reaction”, “volume. Next, soluble rat tyrosine kinase containing an N-terminal 6×HIS tag was diluted” for “volume. Next, CDK1:Cyclin-B protein was diluted”, “concentration of 5 ng per” for “concentration of 1 ng per”, “and 30 μL (150 ng enzyme” for “and 30 μl (30 ng enzyme”, “EDTA. The PLC1 biotinylated peptide” for “EDTA. The histone-H1 biotinylated peptide”, “activity of the VEGF-R was measured” for “activity of CDK1 was measured”
Assays to test compound inhibition of other kinases were preformed using methods that measure the amount of phosphorylation of a biotinylated peptide substrate. Biotinylated peptide substrates were selected from the literature as appropriate for the enzyme being evaluated. […] Assay conditions vary slightly for each protein kinase, for example, insulin receptor kinase requires 10 mM MnCl2 for activity and Calmodulin-dependent protein kinase requires calmodulin and 10 mM CaCl2. These assay conditions are known in the art. The reaction mixture was dispensed into the wells of a streptavidin coated Flashplate and 1 μl drug stock in 100% DMSO was added to a 100 μl reaction volume resulting in a final concentration of 1% DMSO on the reaction. Enzyme was diluted in 50 mM Tris-HCl pH=8.0, 0.1% BSA and add to each well. The reaction was incubated for one hour at 30° C. in the presence of compound. After one hour the reaction mix was aspirated from the plate and the plate was washed with PBS containing 100 mM EDTA. The plate was read on a scintillation counter to determine ^33P-γ-ATP incorporated into the immobilized peptide. Test compounds were assayed in duplicate at 8 concentrations [100 uM, 10 uM, 1 uM, 100 nM, 10 nM, 1 nM, 100 pM, 10 pM]. A maximum and minimum signal for the assay was determined on each plate. The IC50 was calculated from the dose response curve of the percent inhibition of the maximum signal in the assay according to the formula [max signal—background/test compound signal—background (100)=% inhibition] by graphing the percent inhibition against the log concentration of test compound. Known inhibitor compounds appropriate for the kinase being assayed were also included on each plate.
CDK2 in complex with cyclin A is commercially available (Upstate Biotech, Lake Placid, N.Y.). The CDK4 complex was composed of a mouse CDK4 protein and a mouse Cyclin D1 protein (The mouse CDK4 protein was genetically fused to an N-terminal Flag-epitope tag and the mouse Cyclin D1 protein was fused with an N-terminal AU-1 epitope tag. The genes encoding these proteins were transferred to commercially available baculoviral vectors. The recombinant CDK4/D1 complex was then made by co-infecting commercially available insect cells with viruses carrying these two constructs). […] ERK-1 protein (Discontinued from Calbiochem). EGFR (epidermal growth factor receptor) is purified from human A431 cell membranes (Sigma, St. Louis, Mo., Cat.# E3641).

T2 sequence (O08775 786-1343): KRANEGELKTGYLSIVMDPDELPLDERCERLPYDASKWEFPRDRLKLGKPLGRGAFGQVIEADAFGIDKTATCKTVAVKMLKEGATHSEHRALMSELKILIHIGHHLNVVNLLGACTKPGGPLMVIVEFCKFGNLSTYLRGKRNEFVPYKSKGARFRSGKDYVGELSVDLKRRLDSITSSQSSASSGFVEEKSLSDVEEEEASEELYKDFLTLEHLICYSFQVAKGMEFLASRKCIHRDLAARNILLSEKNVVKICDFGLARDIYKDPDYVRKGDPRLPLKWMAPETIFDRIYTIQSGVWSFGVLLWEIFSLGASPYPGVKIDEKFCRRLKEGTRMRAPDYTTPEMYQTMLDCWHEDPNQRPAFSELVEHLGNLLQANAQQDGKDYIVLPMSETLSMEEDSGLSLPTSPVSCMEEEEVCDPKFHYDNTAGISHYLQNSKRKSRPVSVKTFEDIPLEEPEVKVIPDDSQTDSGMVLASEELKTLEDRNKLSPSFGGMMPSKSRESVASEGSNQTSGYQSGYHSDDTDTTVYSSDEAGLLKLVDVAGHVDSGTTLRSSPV
T1 sequence (P06493 whole entry): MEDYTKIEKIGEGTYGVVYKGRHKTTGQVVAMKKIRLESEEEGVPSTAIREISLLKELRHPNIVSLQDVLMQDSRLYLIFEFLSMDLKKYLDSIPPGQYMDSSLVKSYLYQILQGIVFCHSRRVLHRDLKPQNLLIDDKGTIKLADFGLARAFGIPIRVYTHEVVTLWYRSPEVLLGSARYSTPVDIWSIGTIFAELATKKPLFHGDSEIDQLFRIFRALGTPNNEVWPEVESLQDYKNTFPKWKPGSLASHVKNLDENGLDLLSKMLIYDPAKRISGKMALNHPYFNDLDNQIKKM
T1 sequence (P14635 whole entry partner): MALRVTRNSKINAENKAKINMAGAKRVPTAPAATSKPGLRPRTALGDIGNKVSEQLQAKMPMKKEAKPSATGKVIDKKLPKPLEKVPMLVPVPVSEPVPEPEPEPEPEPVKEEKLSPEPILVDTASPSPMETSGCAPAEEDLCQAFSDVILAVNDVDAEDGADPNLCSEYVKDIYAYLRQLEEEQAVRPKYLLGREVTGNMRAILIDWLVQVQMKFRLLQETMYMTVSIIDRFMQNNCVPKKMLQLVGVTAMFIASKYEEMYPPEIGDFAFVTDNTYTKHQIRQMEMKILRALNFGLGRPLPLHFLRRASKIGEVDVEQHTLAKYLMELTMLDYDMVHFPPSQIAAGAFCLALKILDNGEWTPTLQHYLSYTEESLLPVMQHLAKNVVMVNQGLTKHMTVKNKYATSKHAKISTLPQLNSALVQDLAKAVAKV

Take `Nc1nc(Nc2ccc(S(N)(=O)=O)cc2)nn1C(=O)c1cccnc1` [Cpd 28, 4-[[5-amino-1-(3-pyridinylcarbonyl)-1H-1,2,4-triazol-3-yl]amino]-benzenesulfonamide]: the IC50 on CDK1:Cyclin-B came out at 982 nM; in experiment [1], 13200 nM.

Consider `Nc1nc(Nc2ccc(S(N)(=O)=O)cc2)nn1C(=O)c1ccncc1` [Cpd 29, 4-[[5-amino-1-(4-pyridinylcarbonyl)-1H-1,2,4-triazol-3-yl]amino]-benzenesulfonamide], for which the IC50 is 70400 nM at CDK1:Cyclin-B and about 100000 nM in experiment [1].

As for `Nc1nc(Nc2ccc(S(N)(=O)=O)cc2)nn1C(=O)c1cc2ccccc2s1` [Cpd 31, 4-[[5-amino-1-(benzo[b]thien-2-ylcarbonyl)-1H-1,2,4-triazol-3-yl]amino]-benzenesulfonamide], the results for the IC50 (on CDK1:Cyclin-B; in experiment [1]) were 30 nM and 44 nM, respectively.

Take `Cc1nnsc1C(=O)n1nc(Nc2ccc(S(N)(=O)=O)cc2)nc1N` [Cpd 36, 4-[[5-amino-1-[(4-methyl-1,2,3-thiadiazol-5-yl)carbonyl]-1H-1,2,4-triazol-3-yl]amino]-benzenesulfonamide]: the figures for the half-inhibitory concentration (IC50) (on CDK1:Cyclin-B; in experiment [1]) were 1560 nM and 18600 nM, respectively.

`Nc1nc(Nc2ccc(S(N)(=O)=O)cc2)nn1C(=O)c1csnn1` [Cpd 37, 4-[[5-amino-1-(1,2,3-thiadiazol-4-ylcarbonyl)-1H-1,2,4-triazol-3-yl]amino]-benzenesulfonamide]: the 50% inhibitory concentration (IC50) at CDK1:Cyclin-B was found to be 10500 nM; in experiment [1], 55000 nM.

Take `Nc1nc(Nc2ccc(S(N)(=O)=O)cc2)nn1C(=O)Cc1cccs1` [Cpd 40, 4-[[5-amino-1-(2-thienylacetyl)-1H-1,2,4-triazol-3-yl]amino]-benzenesulfonamide]: the concentration for half-maximal inhibition (IC50) turned out to be 195 nM at CDK1:Cyclin-B and 11100 nM in experiment [1].

Take `Nc1nc(Nc2ccc(S(N)(=O)=O)cc2)nn1C(=O)/C=C/c1cccs1` [Cpd 42, 4-[[5-amino-1-[(2E)-1-oxo-3-(2-thienyl)-2-propenyl]-1H-1,2,4-triazol-3-yl]amino]-benzenesulfonamide]: the values for the concentration for half-maximal inhibition (IC50) (on CDK1:Cyclin-B; in experiment [1]) were 134 nM and 443 nM, respectively.

With `Nc1nc(Nc2ccc(S(N)(=O)=O)cc2)nn1C(=O)Cc1c(F)cccc1F` [Cpd 43, 4-[[5-amino-1-[(2,6-difluorophenyl)acetyl]-1H-1,2,4-triazol-3-yl]amino]-benzenesulfonamide], the figures for the IC50 (on CDK1:Cyclin-B; in experiment [1]) were 87.3 nM and 628 nM, respectively.

For the molecule `Nc1nc(Nc2ccc(S(N)(=O)=O)cc2)nn1C(=O)/C=C/c1c(F)cccc1F` [Cpd 44, 4-[[5-amino-1-[(2E)-3-(2,6-difluorophenyl)-1-oxo-2-propenyl]-1H-1,2,4-triazol-3-yl]amino]-benzenesulfonamide], the IC50 on CDK1:Cyclin-B turned out to be 522 nM; in experiment [1], 2680 nM.

Turning to `Nc1nc(Nc2ccc(S(N)(=O)=O)cc2)nn1C(=O)C1CCCCCC1` [Cpd 45, 4-[[5-amino-1-(cycloheptylcarbonyl)-1H-1,2,4-triazol-3-yl]amino]-benzenesulfonamide], the values for the concentration for half-maximal inhibition (IC50) (on CDK1:Cyclin-B; in experiment [1]) were 13.7 nM and 355 nM, respectively.

Turning to `CC1CCC(C(=O)n2nc(Nc3ccc(S(N)(=O)=O)cc3)nc2N)CC1` (centres unmarked) [Cpd 46, 4-[[5-amino-1-[(4-methylcyclohexyl)carbonyl]-1H-1,2,4-triazol-3-yl]amino]-benzenesulfonamide], the values for the 50% inhibitory concentration (IC50) (at CDK1:Cyclin-B; in experiment [1]) were 35.8 nM and 453 nM, respectively.

In the case of `CC1CCCCC1C(=O)n1nc(Nc2ccc(S(N)(=O)=O)cc2)nc1N` (centres unmarked) [Cpd 47, 4-[[5-amino-1-[(2-methylcyclohexyl)carbonyl]-1H-1,2,4-triazol-3-yl]amino]-benzenesulfonamide], the IC50 was 58.6 nM on CDK1:Cyclin-B and 2520 nM in experiment [1].

On to `CCCCC1CCC(C(=O)n2nc(Nc3ccc(S(N)(=O)=O)cc3)nc2N)CC1` (centres unmarked) [Cpd 48, 4-[[5-amino-1-[(4-butylcyclohexyl)carbonyl]-1H-1,2,4-triazol-3-yl]amino]-benzenesulfonamide], for which the half-inhibitory concentration (IC50) on CDK1:Cyclin-B was 2600 nM; in experiment [1], about 100000 nM.
